What all share (test): SILAC competitive chemical proteomic assay (TH211 probe, LC-MS/MS)
Common to all, as to assay type: cell-based

Experiment [1] concerns the target T1, Sorting nexin-6 (Homo sapiens, UniProt Q9UNH7).
T1 construct: endogenous in cells; host or cells: HEK293T
T1 sequence (Q9UNH7 1-406): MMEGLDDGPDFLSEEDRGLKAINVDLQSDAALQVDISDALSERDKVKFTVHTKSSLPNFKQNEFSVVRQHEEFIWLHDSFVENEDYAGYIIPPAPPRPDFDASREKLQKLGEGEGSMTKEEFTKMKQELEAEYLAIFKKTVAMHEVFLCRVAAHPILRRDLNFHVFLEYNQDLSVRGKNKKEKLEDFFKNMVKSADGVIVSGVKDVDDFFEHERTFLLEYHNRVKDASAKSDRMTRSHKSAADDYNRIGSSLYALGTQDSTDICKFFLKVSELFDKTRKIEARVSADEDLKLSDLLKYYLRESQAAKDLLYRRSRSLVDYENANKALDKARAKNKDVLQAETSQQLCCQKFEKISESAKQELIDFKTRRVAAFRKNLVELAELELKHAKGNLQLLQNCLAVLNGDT
As to conditions: TH207 inhibitor; HEK293T soluble fraction; Q9UNH7.1 lysine 204. The procedure: (§1) The light and heavy proteomes (2.3 mg/mL, 432 μL) prepared from HEK293T cells that were pretreated in situ with vehicle (DMSO) or the inhibitor (2 μM), respectively, at 37° C. for 1 hr followed by probe TH211 treatment (50 μM) for 2 h, were directly were subjected to click reaction with the desthiobiotin-PEG3-azide (10 mM in DMSO, 10 μL, final concentration 200 μM) in the presence of TCEP (50 mM, 10 μL), TBTA (1.7 mM, 33 μL) and CuSO4 (50 mM, 10 μL) at room temperature for 1 hr. The light and the heavy samples were mixed in the chloroform-methanol extraction step. The subsequent steps including reduction with dithiothreitol, alkylation with iodoacetamide, digestion with Trypsin/Lys-C, enrichment with avidin beads were conducted as previously described^26.

Experiment [2] addresses T2, Isoleucine tRNA ligase (Homo sapiens, UniProt Q9NSE4).
T2 construct: endogenous in cells; host or cells: HEK293T
T2 sequence (Q9NSE4 49-1012): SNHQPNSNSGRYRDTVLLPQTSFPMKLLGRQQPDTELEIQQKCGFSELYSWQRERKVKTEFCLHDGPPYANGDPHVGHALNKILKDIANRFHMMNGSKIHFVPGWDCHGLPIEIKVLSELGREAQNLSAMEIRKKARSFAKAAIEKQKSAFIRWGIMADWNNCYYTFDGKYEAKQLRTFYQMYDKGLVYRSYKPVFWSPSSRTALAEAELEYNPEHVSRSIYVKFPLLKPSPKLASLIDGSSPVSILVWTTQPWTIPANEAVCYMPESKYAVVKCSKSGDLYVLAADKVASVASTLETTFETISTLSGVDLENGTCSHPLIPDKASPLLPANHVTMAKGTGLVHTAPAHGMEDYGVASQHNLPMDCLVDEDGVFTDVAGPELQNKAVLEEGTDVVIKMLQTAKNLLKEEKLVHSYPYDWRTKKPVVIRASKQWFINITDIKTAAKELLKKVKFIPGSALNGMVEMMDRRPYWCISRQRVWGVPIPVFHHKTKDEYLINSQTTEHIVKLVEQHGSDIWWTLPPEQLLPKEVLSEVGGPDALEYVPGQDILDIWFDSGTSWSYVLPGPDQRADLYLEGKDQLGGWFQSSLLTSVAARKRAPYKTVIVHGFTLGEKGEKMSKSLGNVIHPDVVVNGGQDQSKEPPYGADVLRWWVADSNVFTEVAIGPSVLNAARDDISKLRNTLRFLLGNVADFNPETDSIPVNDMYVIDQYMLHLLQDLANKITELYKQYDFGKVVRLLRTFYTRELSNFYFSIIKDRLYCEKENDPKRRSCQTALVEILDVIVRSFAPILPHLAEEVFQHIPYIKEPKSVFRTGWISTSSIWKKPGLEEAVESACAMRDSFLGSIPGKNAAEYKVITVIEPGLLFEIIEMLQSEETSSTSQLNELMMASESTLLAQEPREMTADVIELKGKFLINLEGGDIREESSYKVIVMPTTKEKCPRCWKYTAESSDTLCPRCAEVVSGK
As to conditions: TH207 inhibitor; HEK293T soluble fraction; Q9NSE4.2 tyrosine 260. The procedure:
as §1

Experiment [3] addresses T3, Proteasome subunit alpha type-2 (Homo sapiens, UniProt P25787).
T3 construct: endogenous in cells; host or cells: HEK293T
As to conditions: TH207 inhibitor; HEK293T soluble fraction; P25787.2 lysine 92. Here is the method:
as §1

Experiment [4] has as its target T4, dCTP pyrophosphatase 1 (Homo sapiens, UniProt Q9H773).
T4 construct: endogenous in cells; host or cells: HEK293T
T4 sequence (Q9H773 1-170): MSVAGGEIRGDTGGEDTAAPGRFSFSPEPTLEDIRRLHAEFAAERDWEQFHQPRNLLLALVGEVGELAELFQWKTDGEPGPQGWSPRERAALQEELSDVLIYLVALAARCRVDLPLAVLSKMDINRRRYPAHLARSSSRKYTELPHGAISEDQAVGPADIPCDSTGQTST
As to conditions: TH207 inhibitor; HEK293T soluble fraction; Q9H773.1 tyrosine 129. Here is the method: as §1

As for `Cc1ccc(S(=O)(=O)n2cc(CCN3CCC(=C(c4ccc(F)cc4)c4ccc(F)cc4)CC3)nn2)cc1` [TH207, 4-(Bis(4-fluorophenyl)methylene)-1-(2-(1-tosyl-1H-1,2,3-triazol-4-yl)ethyl)piperidine], the “Normalized SILAC ratio (SR), Sorting nexin-6 K204” value in experiment [1] turned out to be 6.9. Moreover, in experiment [2], the “Normalized SILAC ratio (SR), Isoleucine tRNA ligase Y260” value was determined as 1.8. Also, the “Normalized SILAC ratio (SR), Proteasome subunit alpha type-2 K92” value in experiment [3] came to 1.2. Further, the “Normalized SILAC ratio (SR), dCTP pyrophosphatase 1 Y129” value in experiment [4] was 3.
